Read-outs that look alike come from different tables or passages of the source.

From patent US20240254089A1, “MODULATORS OF MAS-RELATED G-PROTEIN RECEPTOR X4 AND RELATED PRODUCTS AND METHODS” (ESCIENT PHARMACEUTICALS, INC., priority 2020, published 2024) come the findings set out here.

In this assay the target is T1, human MRGPR X4 (Homo sapiens, UniProt Q96LA9).
T1 construct: expressed in transfected cells
Nature of the assay: MRGPR X4 antagonist activity, IP-One Gq HTRF assay in stably transfected HEK cells. The class given is cell-based. In short, it runs like this:
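Human MRGPR X4-expressing HEK cells, 20,000/well, were incubated with compound (10-point curve, 10 uM top, 1:3 dilutions) plus agonist (10 μM bilirubin, 20 μM deoxycholic acid or 100 μM conjugated bilirubin) in Tris/NaCl/LiCl buffer, pH 8, for 1 h at 37 °C, then 30 min at room temperature. IP-1 was read by HTRF, and IC50 was taken from the HTRF ratio.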
Background: Time-resolved FRET reads energy transfer from a long-lived donor to a nearby acceptor.

[1] abbreviates: versus 20 μM deoxycholic acid agonist, HEK cells expressing human MRGPR X4, read-out: MRGPRX4 Antagonist Activity.

T1 sequence (Q96LA9 whole entry): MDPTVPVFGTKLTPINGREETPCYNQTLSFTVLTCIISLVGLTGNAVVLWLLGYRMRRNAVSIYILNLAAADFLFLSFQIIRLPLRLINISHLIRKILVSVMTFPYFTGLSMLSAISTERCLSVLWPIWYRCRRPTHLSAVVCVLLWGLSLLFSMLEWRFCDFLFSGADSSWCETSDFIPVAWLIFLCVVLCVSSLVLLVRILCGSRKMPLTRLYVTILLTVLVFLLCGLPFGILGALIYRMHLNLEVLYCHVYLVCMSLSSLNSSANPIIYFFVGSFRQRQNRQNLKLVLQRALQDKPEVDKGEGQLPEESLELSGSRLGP

Consider `O=C(NCCc1nnc2ccccn12)c1nn(Cc2cnc3ccccc3c2)c2ccccc12` [Compound 455], for which the IC50 lay in the range of 100 to 500 nM.

The compound `CC(C)c1cccc(Cn2nc(C(=O)NCCc3nnc4ccccn34)c3ccccc32)c1` [Compound 456] yielded an IC50 of 100 to 500 nM.

Regarding `Cc1cccc(C(F)(F)F)c1Cn1nc(C(=O)NCCc2nnc3ccccn23)c2ccccc21` [Compound 457], the IC50 was more than 2500 nM.

The compound `O=C(NCCc1nnc2ccccn12)c1nn(Cc2ccc3ncccc3c2)c2ccccc12` [Compound 458] displayed an IC50 of 501 to 1000 nM.

The compound `O=C(NCCc1nnc2ccccn12)c1nn(Cc2cccc(C(F)(F)F)c2F)c2ccccc12` [Compound 459] gave an IC50 of 100 to 500 nM.

Regarding `Cn1ncc2cccc(Cn3nc(C(=O)NCCc4nnc5ccccn45)c4ccccc43)c21` [Compound 460], the IC50 fell in the range of 501 to 1000 nM.

Take `O=C(NCCc1nnc2ccccn12)c1nn(Cc2ccc(-n3cccn3)cc2)c2ccccc12` [Compound 461]: the IC50 is 1000 to 2500 nM.

Regarding `CC(C)(C#N)c1ccc(Cn2nc(C(=O)NCCc3nnc4ccccn34)c3ccccc32)cc1` [Compound 462], the IC50 lay within 1000 to 2500 nM.

`O=C(NCCc1nnc2ccccn12)c1nn(Cc2ccc(OC(F)F)cc2)c2ccccc12` [Compound 463] gave an IC50 of less than 100 nM.

Turning to `N#Cc1ccc(Cn2nc(C(=O)NCCc3nnc4ccccn34)c3ccccc32)cn1` [Compound 464], the IC50 lay within 1000 to 2500 nM.

On to `O=C(NCCc1nnc2ccccn12)c1nn(Cn2nnc3ccccc32)c2ccccc12` [Compound 465], for which the IC50 lay in the range of 100 to 500 nM.

The compound `N#Cc1ccc(Cn2nc(C(=O)NCCc3nnc4ccccn34)c3ccccc32)s1` [Compound 466] showed an IC50 of 100 to 500 nM.

As for `Cn1cc(C(=O)Cn2nc(C(=O)NCCc3nnc4ccccn34)c3ccccc32)cn1` [Compound 467], the IC50 lay within 100 to 500 nM.

On to `Cc1ccc(C(=O)Cn2nc(C(=O)NCCc3nnc4ccccn34)c3ccccc32)cc1` [Compound 468], for which the IC50 under setting [1] was in the range of 1000 to 2500 nM.

On to `O=C(NCCc1nnc2ccccn12)c1nn(CC(=O)C2CCCCC2)c2ccccc12` [Compound 469], for which the IC50 lay within 1000 to 2500 nM.

Turning to `O=C(NCCc1nnc2ccccn12)c1nn(CCCOc2ccc(Cl)cc2)c2ccccc12` [Compound 470], the IC50 under setting [1] was more than 2500 nM.

As for `O=C(NCCc1nnc2ccccn12)c1nn(CCc2ccc(F)cc2F)c2ccccc12` [Compound 471], the IC50 under setting [1] is more than 2500 nM.

For the compound `O=C(Cn1nc(C(=O)NCCc2nnc3ccccn23)c2ccccc21)NCC1CCCCC1` [Compound 472], under setting [1], the IC50 was more than 2500 nM.

On to `COc1ccc(Cn2nc(C(=O)NCCc3nnc4ccccn34)c3ccccc32)c2ccccc12` [Compound 473], for which the IC50 lay within 100 to 500 nM.

Regarding `O=C(NCCc1nnc2ccccn12)c1nn(Cc2cccc3ccccc23)c2ccccc12` [Compound 474], the IC50 is 100 to 500 nM.

`O=C(NCc1cccc2nc[nH]c12)c1nn(Cc2ccc(Cl)cc2)c2ccccc12` [Compound 475]: the IC50 was more than 2500 nM.

For `O=C(NCCc1nnc2ccccn12)c1nn(Cc2ccn3ccnc3c2)c2ccccc12` [Compound 476], the IC50 is more than 2500 nM.

`O=C(NCCc1nnc2ccccn12)c1nn(Cc2ccc3nsnc3c2)c2ccccc12` [Compound 477] returned an IC50 of less than 100 nM.

`O=C(NCCc1nnc2ccccn12)c1nn(Cc2ccc(-c3cnco3)cc2)c2ccccc12` [Compound 478]: the IC50 lay in the range of 501 to 1000 nM.

Consider `Cc1cc(C)c(Cn2nc(C(=O)NCCc3nnc4ccccn34)c3ccccc32)c(C)c1` [Compound 479], for which the IC50 is 100 to 500 nM.

As to `CCn1c(Cn2nc(C(=O)NCCc3nnc4ccccn34)c3ccccc32)nc2ccccc21` [Compound 480], the IC50 lay in the range of 501 to 1000 nM.

`O=C(Cn1nc(C(=O)NCCc2nnc3ccccn23)c2ccccc21)c1ccc(Cl)cc1` [Compound 481] came in with an IC50 of 501 to 1000 nM.

Consider `O=C(Cn1nc(C(=O)NCCc2nnc3ccccn23)c2ccccc21)c1ccc(Cl)c(Cl)c1` [Compound 482], for which, under setting [1], the IC50 is less than 100 nM.

The compound `Cc1ccc(C(=O)Cn2nc(C(=O)NCCc3nnc4ccccn34)c3ccccc32)c(C)c1` [Compound 483] yielded an IC50 of 501 to 1000 nM.

As for `COc1ccc(C(=O)Cn2nc(C(=O)NCCc3nnc4ccccn34)c3ccccc32)cc1` [Compound 484], the IC50 under setting [1] was in the range of 1000 to 2500 nM.

`O=C(NCCc1nnc2ccccn12)c1nn(CCOc2ccc(Cl)cc2)c2ccccc12` [Compound 485] returned an IC50 of 501 to 1000 nM.

Take `COc1ccccc1OCCn1nc(C(=O)NCCc2nnc3ccccn23)c2ccccc21` [Compound 486]: the IC50 was 501 to 1000 nM.

`O=C(NCCc1nnc2ccccn12)c1nn(CCCC2CCCC2)c2ccccc12` [Compound 487] returned an IC50 of 100 to 500 nM.

As for `O=C(NCCc1nnc2ccccn12)c1nn(CC2CCCCC2)c2ccccc12` [Compound 488], the IC50 was 501 to 1000 nM.

`O=C(NCCc1nnc2ccccn12)c1nn(CC2CCC(F)(F)CC2)c2ccccc12` [Compound 489] showed an IC50 of 501 to 1000 nM.

Take `O=C(NCCc1nnc2ccccn12)c1nn(Cc2ccc(C3CC3)cc2)c2ccccc12` [Compound 490]: the IC50 was less than 100 nM.

As to `O=C(NCCc1nnc2ccccn12)c1nn(Cc2cccc3c2CCO3)c2ccccc12` [Compound 491], the IC50 was in the range of 100 to 500 nM.

In the case of `CN(C)c1cccc(Cn2nc(C(=O)NCCc3nnc4ccccn34)c3ccccc32)n1` [Compound 492], the IC50 is more than 2500 nM.

`O=C(NCCc1nnc2ccccn12)c1nn(Cc2ccc3occc3c2)c2ccccc12` [Compound 493] yielded an IC50 of less than 100 nM.

As for `O=C(NCCc1nnc2ccccn12)c1nn(Cc2ccc3c(c2)CCC3)c2ccccc12` [Compound 494], the IC50 was less than 100 nM.

Compound `O=C(NCCc1nnc2ccccn12)c1nn(Cc2ccc3sccc3c2)c2ccccc12` [Compound 495] came in with an IC50 of less than 100 nM.

For `O=C(NCCc1nnc2ccccn12)c1nn(Cc2cc3ccccc3o2)c2ccccc12` [Compound 496], the IC50 is less than 100 nM.

As to `O=C(NCCc1nnc2ccccn12)c1nn(Cc2nc3ccccc3s2)c2ccccc12` [Compound 497], the IC50 is less than 100 nM.

The compound `O=C(NCCc1nnc2ccccn12)c1nn(Cc2cnn(-c3ccccc3)c2)c2ccccc12` [Compound 498] gave an IC50 of 100 to 500 nM.

Take `COc1ccc(-c2nc(Cn3nc(C(=O)NCCc4nnc5ccccn45)c4ccccc43)cs2)cc1` [Compound 499]: the IC50 lay in the range of 501 to 1000 nM.

In the case of `O=C(NCCc1nnc2ccccn12)c1nn(Cc2cc(-c3ccc4c(c3)OCO4)no2)c2ccccc12` [Compound 500], the IC50 under setting [1] is 1000 to 2500 nM.

Compound `O=C(NCCc1nnc2ccccn12)c1nn(Cc2cnc(C(F)(F)F)s2)c2ccccc12` [Compound 501] yielded an IC50 of 100 to 500 nM.

For `O=C(NCCc1nnc2ccccn12)c1nn(Cc2cn3cc(Br)ccc3n2)c2ccccc12` [Compound 502], the IC50 is more than 2500 nM.

In the case of `O=C(Cn1nc(C(=O)NCCc2nnc3ccccn23)c2ccccc21)c1cc2ccccc2o1` [Compound 503], under setting [1], the IC50 is 501 to 1000 nM.

For the compound `O=C(NCCc1nnc2ccccn12)c1nn(CCC2CCCC2)c2ccccc12` [Compound 504], the IC50 is 501 to 1000 nM.

`O=C(NCCc1nnc2ccccn12)c1nn(CCc2ccc(Cl)c(Cl)c2)c2ccccc12` [Compound 505] showed an IC50 of 1000 to 2500 nM.

Consider `COc1ccccc1CCCn1nc(C(=O)NCCc2nnc3ccccn23)c2ccccc21` [Compound 506], for which the IC50 under setting [1] is more than 2500 nM.

For `O=C(NCCc1nnc2ccccn12)c1nn(Cc2ccc3c(c2)OC(F)(F)O3)c2ccccc12` [Compound 507], the IC50 fell in the range of 100 to 500 nM.

For `O=C(NCCc1nnc2ccccn12)c1nn(Cc2ccc3c(c2)OCO3)c2ccccc12` [Compound 508], the IC50 was in the range of 100 to 500 nM.

On to `O=C(NCCc1nnc2ccccn12)c1nn(Cc2cc(F)cc(C(F)(F)F)c2)c2ccccc12` [Compound 509], for which the IC50 fell in the range of 100 to 500 nM.

Turning to `CS(=O)(=O)c1cccc(Cn2nc(C(=O)NCCc3nnc4ccccn34)c3ccccc32)c1` [Compound 510], the IC50 under setting [1] was more than 2500 nM.

For `O=C(NCCc1nnc2ccccn12)c1nn(Cc2nc(C3CCC3)no2)c2ccccc12` [Compound 511], the IC50 lay within 100 to 500 nM.

With `O=C(NCCc1nnc2ccccn12)c1nn(Cc2csc(-c3ccccc3)n2)c2ccccc12` [Compound 512], the IC50 lay within 100 to 500 nM.

For `O=C(NCCc1nnc2ccccn12)c1nn(Cc2nc(C(F)(F)F)no2)c2ccccc12` [Compound 513], the IC50 is more than 2500 nM.

`Cc1oc(-c2ccccc2F)nc1Cn1nc(C(=O)NCCc2nnc3ccccn23)c2ccccc21` [Compound 514] came in with an IC50 of 100 to 500 nM.

In turn, `Cn1nccc1Cn1nc(C(=O)NCCc2nnc3ccccn23)c2ccccc21` [Compound 515] returned an IC50 of more than 2500 nM.

`O=C(NCCc1nnc2ccccn12)c1nn(Cc2nc3ccccc3[nH]c2=O)c2ccccc12` [Compound 516] showed an IC50 of more than 2500 nM.

Take `O=C(Cn1nc(C(=O)NCCc2nnc3ccccn23)c2ccccc21)c1ccc(F)c(F)c1` [Compound 517]: the IC50 was in the range of 1000 to 2500 nM.

The compound `O=C(NCCc1nnc2ccccn12)c1nn(Cc2cccn3ccnc23)c2ccccc12` [Compound 518] registered an IC50 of 1000 to 2500 nM.

`COc1ccc2nc(Cn3nc(C(=O)NCCc4nnc5ccccn45)c4ccccc43)[nH]c2c1` [Compound 519]: the IC50 is 501 to 1000 nM.

With `Cc1occc1Cn1nc(C(=O)NCCc2nnc3ccccn23)c2ccccc21` [Compound 520], the IC50 was more than 2500 nM.

As to `O=C(NCCc1nnc2ccccn12)c1nn(Cc2nc3ccccc3[nH]2)c2ccccc12` [Compound 521], the IC50 fell in the range of 1000 to 2500 nM.

For the compound `O=C(NCCc1nnc2ccccn12)c1nn(Cc2nc3ccc(C(F)(F)F)cc3[nH]2)c2ccccc12` [Compound 522], the IC50 lay within 501 to 1000 nM.

For `Cc1cccc(CCn2nc(C(=O)NCCc3nnc4ccccn34)c3ccccc32)c1` [Compound 523], the IC50 was in the range of 1000 to 2500 nM.

The compound `O=C(NCCc1nnc2ccccn12)c1nn(Cc2ccc(Cl)c(F)c2)c2ccccc12` [Compound 524] gave an IC50 of less than 100 nM.

Compound `O=C(NCCc1nnc2ccccn12)c1nn(Cc2ccc(Cl)cc2Cl)c2ccccc12` [Compound 525] registered an IC50 of less than 100 nM.
